Here are results for one compound from US20040028623A1, “Formulations for the removal of dental plaque, tartar and dental stains” (priority 2000, published 2004).

How the values of test [1] were obtained: In another clinical test five volunteers were chose, all male and smokers, characterized by a strong formation of dental calculus (tartar), especially IN the zone of the lingual face of the lower incisors. Each volunteer underwent an application of 500 mg of pure glutathione in powder on the lingual face of the lower incisors by means of a single-tuft toothbrush with medium bristles, followed by a tooth brushing for ten minutes with the same toothbrush. After a rinse with water the operation was repeated, always for ten minutes using a further 500 mg of glutathione.

The conditions of test [2]: aqueous solution of 2%, 30° C, without light, tooth rinsed and lightly brushed and solution changed every two days. Here is the method:
The in vitro evaluation of anti-tartar activity was carried out on an extracted tooth. The amount of tartar on said tooth was quantified before the test. The tooth was then immersed. Into an aqueous solution of 2% glutathlone and kept in a closed vessel without light at 30° C. Every two days said tooth was rinsed and lightly brushed and the solution was changed.

How the values of test [3] were obtained:
In another clinical test five volunteers were chose, all male and smokers, characterized by a strong formation of dental calculus (tartar), especially in the zone of the lingual face of the lower incisors. Each volunteer underwent an application of 200 mg of pure glutathione in powder on the lingual face of the lower incisors by means of a single-tuft toothbrush with medium bristles, followed-by a tooth brushing for ten minutes with the same toothbrush. After a rinse with water the operation was repeated, always for ten minutes using a further 200 mg of glutathione.
The source holds these as a separate data set.

Read-outs that look alike come from different tables or passages of the source.

Regarding `N[C@@H](CCC(=O)N[C@@H](CS)C(=O)NCC(=O)O)C(=O)O` [glutathione], the “removal of dental calculus (tartar)” value in test [1] (all five volunteers, zones where brushing had been carried out, 2 x 500 mg powder, 2 x ten minutes brushing) is listed as “complete removal”. Further, the “residual dental calculus (tartar)” value in test [1] (sub-gingival and interstitial zones where brushing had not been properly carried out, 2 x 500 mg) is on record as “presence of residual dental calculus (tartar)”. In test [2], the “time until removal of tartar was completed” value is on record as “two to three weeks” and the “time until removal of tartar was evident” value is recorded as “after only four days”. Besides, the “reduction of dental calculus (tartar)” value in test [3] (all five volunteers, zones where brushing had been carried out, 2 x 200 mg powder, 2 x ten minutes brushing) is on record as “consistent reduction”. In addition, in test [3] (sub-gingival and interstitial zones where brushing had not been properly carried out, 2 x 200 mg), the “residual dental calculus (tartar)” value is reported as “presence of residual dental calculus (tartar)”.
